Measured values: the supplement of paper PMC11451515

Test system: P12-Ichikawa
Assay: cell viability relative to DMSO control; higher = less cytotoxic
Conditions: 48 h
In short: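 Library compounds in DMSO were pin-dosed into 1536-well plates (5 μl) holding NOMO1 or SEM (500 cells/well) or P12-Ichikawa (1000 cells/well) leukemia cells, across an 11-point threefold series of 47 μM to 0.79 nM. Each cell line had been adapted for at least four passages in each medium. CellTiter-Glo One luminescence was read after 48 h at 37°C. Viability is the per-plate percentage relative to DMSO wells, with cell-free wells as background.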

[1] = HPLM + 10% dialyzed FBS, 0.000781 µM
[2] = HPLM + 10% dialyzed FBS, 0.00234 µM
[3] = HPLM + 10% dialyzed FBS, 0.00702 µM
[4] = HPLM + 10% dialyzed FBS, 0.0211 µM
[5] = HPLM + 10% dialyzed FBS, 0.0632 µM
[6] = HPLM + 10% dialyzed FBS, 0.19 µM
[7] = HPLM + 10% dialyzed FBS, 0.569 µM
[8] = HPLM + 10% dialyzed FBS, 1.71 µM
[9] = HPLM + 10% dialyzed FBS, 5.12 µM
[10] = HPLM + 10% dialyzed FBS, 15.4 µM
[11] = HPLM + 10% dialyzed FBS, 46.1 µM
[12] = RPMI 5 mM glucose + 10% FBS, 0.000781 µM
[13] = RPMI 5 mM glucose + 10% FBS, 0.00234 µM
[14] = RPMI 5 mM glucose + 10% FBS, 0.00702 µM
[15] = RPMI 5 mM glucose + 10% FBS, 0.0211 µM
[16] = RPMI 5 mM glucose + 10% FBS, 0.0632 µM
[17] = RPMI 5 mM glucose + 10% FBS, 0.19 µM
[18] = RPMI 5 mM glucose + 10% FBS, 0.569 µM
[19] = RPMI 5 mM glucose + 10% FBS, 1.71 µM
[20] = RPMI 5 mM glucose + 10% FBS, 5.12 µM
[21] = RPMI 5 mM glucose + 10% FBS, 15.4 µM
[22] = RPMI 5 mM glucose + 10% FBS, 46.1 µM
[23] = RPMI 5 mM glucose + 10% dialyzed FBS, 0.000781 µM
[24] = RPMI 5 mM glucose + 10% dialyzed FBS, 0.00234 µM
[25] = RPMI 5 mM glucose + 10% dialyzed FBS, 0.00702 µM
[26] = RPMI 5 mM glucose + 10% dialyzed FBS, 0.0211 µM
[27] = RPMI 5 mM glucose + 10% dialyzed FBS, 0.0632 µM
[28] = RPMI 5 mM glucose + 10% dialyzed FBS, 0.19 µM
[29] = RPMI 5 mM glucose + 10% dialyzed FBS, 0.569 µM
[30] = RPMI 5 mM glucose + 10% dialyzed FBS, 1.71 µM
[31] = RPMI 5 mM glucose + 10% dialyzed FBS, 5.12 µM
[32] = RPMI 5 mM glucose + 10% dialyzed FBS, 15.4 µM
[33] = RPMI 5 mM glucose + 10% dialyzed FBS, 46.1 µM

Structure (SMILES) | cell viability [1] | cell viability [2] | cell viability [3] | cell viability [4] | cell viability [5] | cell viability [6] | cell viability [7] | cell viability [8] | cell viability [9] | cell viability [10] | cell viability [11] | cell viability [12] | cell viability [13] | cell viability [14] | cell viability [15] | cell viability [16] | cell viability [17] | cell viability [18] | cell viability [19] | cell viability [20] | cell viability [21] | cell viability [22] | cell viability [23] | cell viability [24] | cell viability [25] | cell viability [26] | cell viability [27] | cell viability [28] | cell viability [29] | cell viability [30] | cell viability [31] | cell viability [32] | cell viability [33]
c1ccc(-c2nn3c(c2-c2ccnc4cc(OCCN5CCOCC5)ccc24)CCC3)nc1 | 120% | 114% | 111% | 119% | 112% | 112% | 97% | 109% | 103% | 94.9% | 84.5% | 112% | 117% | 123% | 115% | 112% | 96.2% | 89.8% | 106% | 119% | 73% | 74.6% | 110% | 120% | 122% | 119% | 112% | 113% | 112% | 108% | 102% | 99.3% | 84.8%
c1cc(-c2sc(-c3ccncc3)c(-c3ccncc3)c2-c2ccncc2)ccn1 | 101% | 109% | 108% | 115% | 121% | 123% | 118% | 107% | 110% | 112% | 106% | 97.9% | 114% | 102% | 113% | 121% | 123% | 121% | 126% | 110% | 112% | 104% | 97.3% | 111% | 109% | 117% | 115% | 120% | 124% | 118% | 111% | 113% | 98.9%
C[C@H]1CCC/C=C/C2C[C@H](O)C[C@H]2[C@H](O)/C=C/C(=O)O1 (some centres undefined) | 90.4% | 102% | 94.8% | 70.4% | 32.8% | 18.7% | 9.39% | 4.66% | 2.87% | 2.17% | 2.02% | 74% | 75.3% | 81.5% | 60.1% | 10.9% | 9.73% | 6.57% | 4.48% | 1.69% | 1.14% | 1.83% | 104% | 81.9% | 86.1% | 62.7% | 12.7% | 12.8% | 6.09% | 4.16% | 3.23% | 2.71% | 1.83%
